The nature of the assay: Intraperitoneal insulin sensitivity test (IPIST). The settings on record: fasted 16 hours, 0.5 IU/kg intraperitoneal, after 30 minutes. The class given is in vivo, mice. On the procedure: Nineteen weeks after the beginning of the study, 5 mice in each group (control diet and HFD) were weighed and subjected to an intraperitoneal insulin sensitivity test (IPIST, the protocol of which is detailed below) to check the insulin resistance of the mice. At week 20, glycaemia tests, the protocol of which is detailed below, were performed. Just after the end of these tests, mice received daily 10^9 CFU of Lactobacillus acidophilus NCFM/mouse/day by oral gavage, for 3 weeks. At week 23, animals were sacrificed after weighing and after determination of glycaemia.
Mice were fasted for 16 hours and received an intraperitoneal injection of human recombinant insulin (0.5 International Units/kg body weight); Actrapid®, Novo-Nordisk, Bagsvaerd, Denmark). Blood glucose was assayed immediately before and at 15, 30, 45, and 60 minutes after injection using a digital glucometer (Medisense Optium, Abbott, Rungis, France).

Regarding “insulin: human recombinant insulin (Actrapid, Novo-Nordisk) injected intraperitoneally in the IPIST test”, the “decrease of glycaemia after insulin injection” value reads like this: (control diet group) “around 70%”; (high-fat diet group) “around 45%”.

Source of the values: patent US20110189149A1, “New Uses of Lactic Acid Bacteria and Bifidobacteria” (priority 2008, published 2011).
